Here are results for 13 compounds from US20240279227A1, “FUSED HETEROCYCLIC DERIVATIVES” (Janssen Sciences Ireland Unlimited Company, priority 2021, published 2024).

Series [1] is described as follows: Cytotoxicity, ATPlite Luminescence Assay. In kind it is cell-based, human. To be noted: human, HepG2 or HepG2.117 cells, 3-days incubation unless marked with *, ATPlite viability. The procedure: Cytotoxicity of the compounds was tested using HepG2 or HepG2.117 cells, incubated for 3 or 4 days in the presence of compounds. The viability of the cells was assessed using the PERKIN ELMER ATPlite Luminescence Assay System.”

Series [2] is described as follows: Human liver microsome stability. The series is classed as in vitro ADME. To be noted: 1 μM compound, NADPH 1 mM, pH 7.4, 37° C., 0-60 min; for half-life at 1 μM: human, pooled human liver microsomes, pH 7.4, pooled human liver microsomes 0.5 mg/mL, read-out: HLM Metabolism t1/2; for HLM Metabolism t1/2: pooled human liver microsomes 0.5 mg/mL. The procedure: Pooled human liver microsomes (0.5 mg/mL) was pre-incubated with 1 μM test compounds or control compounds (verapamil, warfarin and cerivastatin) in 0.1 M phosphate buffer pH 7.4 containing 1 mM MgCl2 at 37° C. The final concentration of DMSO and acetonitrile are 0.05% and 0.2%, respectively. All incubations are performed singularly for each compound. NADPH was added to initiate the reaction with the final concentration of 1 mM and the final incubation volume of 400 μL.
At 6 time points (0, 5, 10, 20, 40 and 60 min) reactions were stopped by the removal of 50 μL of the incubation mixture into plates containing acetonitrile at a of 1:3 (v:v). The plates were centrifuged at 3000 rpm for 10 min at 4° C. to precipitate the protein. Following protein precipitation, the sample supernatants were combined in cassettes of up to 8 compounds. The internal standard was added (1:1 supernatant to internal standard solution) and samples were analyzed using standard LC-MS conditions.
From a plot of ln peak area ratio (compound peak area/internal standard peak area) against time, the gradient of the line is determined. Subsequently, half-life is calculated using the equations below: […]

The next series relates to HBV. In words: Anti-HBV activity in HepG2.117 cell line (intracellular HBV DNA, real-time PCR). In kind it is cell-based, hepatitis B virus. Conditions: HepG2.117 cells, HBV replication induced, 3 days of treatment, intracellular HBV DNA by real-time PCR. The procedure:
The anti HBV activity was measured using the HepG2.117 cell line, a stable, inducibly HBV producing cell line, which replicates HBV in the absence of doxycycline (Tet-off system). The HepG2 cell line is available from ATCCR under number HB-8065. Transfection of the HepG2 cell line can be as described in Sun and Nassal 2006 Journal of Hepatology 45 (2006) 636-645 “Stable HepG2-and Huh7-based human hepatoma cell lines for efficient regulated expression of infectious hepatitis B virus”.
For the antiviral assay, HBV replication was induced, followed by a treatment with serially diluted compound in 96-well plates. After 3 days of treatment, the antiviral activity was determined by quantification of intracellular HBV DNA using real-time PCR and an HBV specific primer set and probe.

[3] abbreviates: Hepatitis B virus, HepG2.117, 72 h.

Take `CNC(=O)[C@@H]1CN(C(C)c2ccc(C#N)cc2)C(=O)c2c3c(nn21)C[C@@H](C)N(C(=O)c1ccc(Cl)c(Cl)c1)C3` (single isomer, unassigned) [Compound 23A, (3R,7S)-9-((R*)-1-(4-Cyanophenyl)ethyl)-2-(3,4-dichlorobenzoyl)-N,3-dimethyl-10-oxo-1,2,3,4,7,8,9,10-octahydropyrido[4′,3′:3,4]pyrazolo[1,5-a]pyrazine-7-carboxamide]: the CC50 in series [1] was above 50 µM. Moreover, the half-life at 1 μM in series [2] was above 3 h. Also, a half-maximal effect with HBV (EC50) was put at 0.06 µM.
Compound `CNC(=O)[C@@H]1CN(C(C)c2ccc(OC(F)F)c(F)c2)C(=O)c2c3c(nn21)C[C@@H](C)N(C(=O)c1ccc(Cl)c(Cl)c1)C3` (single isomer, unassigned) [Compound 24A, (3R,7S)-2-(3,4-Dichlorobenzoyl)-9-((R*)-1-(4-(difluoromethoxy)-3-fluorophenyl)ethyl)-N,3-dimethyl-10-oxo-1,2,3,4,7,8,9,10-octahydropyrido[4′,3′:3,4]pyrazolo[1,5-a]pyrazine-7-carboxamide] had a CC50 in series [1] of 20.6 µM. Moreover, the half-life at 1 μM in series [2] was above 3 h. This compound also yielded an EC50 with HBV of 0.054 µM.
In series [1], `CC(c1ccc(OC(F)F)cc1)N1C[C@@H](C(=O)NC2CC2)n2nc3c(c2C1=O)CN(C(=O)c1ccc(Cl)c(C#N)c1)[C@H](C)C3` (single isomer, unassigned) [Compound 26A, (3R,7S)-2-(4-Chloro-3-cyanobenzoyl)-N-cyclopropyl-9-((R*)-1-(4-(difluoromethoxy)phenyl)ethyl)-3-methyl-10-oxo-1,2,3,4,7,8,9,10-octahydropyrido[4′,3′:3,4]pyrazolo[1,5-a]pyrazine-7-carboxamide] displayed a CC50 of 29.7 µM. Also, the “HLM Metabolism t1/2” value in series [2] is above 3 h. Also, the EC50 with HBV was 0.19 µM.
Regarding `CNC(=O)[C@@H]1CN(C(C)c2ccc(-c3nnnn3C)cc2)C(=O)c2c3c(nn21)C[C@@H](C)N(C(=O)c1ccc(Cl)c(Cl)c1)C3` (single isomer, unassigned) [Compound 29A, (3R,7S)-2-(3,4-Dichlorobenzoyl)-N,3-dimethyl-9-((R*)-1-(4-(1-methyl-1H-tetrazol-5-yl)phenyl)ethyl)-10-oxo-1,2,3,4,7,8,9,10-octahydropyrido[4′,3′:3,4]pyrazolo[1,5-a]pyrazine-7-carboxamide], the CC50 in series [1] is above 50 µM. Further, the half-life at 1 μM in series [2] was above 3 h. Also, the EC50 in the series on HBV came to 0.82 µM.
The compound `CNC(=O)[C@@H]1CN(C(C)c2ccc(OC)nc2)C(=O)c2c3c(nn21)C[C@@H](C)N(C(=O)c1ccc(Cl)c(Cl)c1)C3` (single isomer, unassigned) [Compound 31A, (3R,7S)-2-(3,4-Dichlorobenzoyl)-9-((R*)-1-(6-methoxypyridin-3-yl)ethyl)-N,3-dimethyl-10-oxo-1,2,3,4,7,8,9,10-octahydropyrido[4′,3′:3,4]pyrazolo[1,5-a]pyrazine-7-carboxamide] registered a CC50 in series [1] above 50 µM. The half-life at 1 μM in series [2] is above 3 h. In addition, the EC50 with HBV was 0.066 µM.
In turn, `CNC(=O)[C@@H]1CN(C(C)c2ccc(C3CC3)nc2)C(=O)c2c3c(nn21)C[C@@H](C)N(C(=O)c1ccc(Cl)c(Cl)c1)C3` (single isomer, unassigned) [Compound 32A, (3R,7S)-9-((R*)-1-(6-Cyclopropylpyridin-3-yl)ethyl)-2-(3,4-dichlorobenzoyl)-N,3-dimethyl-10-oxo-1,2,3,4,7,8,9,10-octahydropyrido[4′,3′:3,4]pyrazolo[1,5-a]pyrazine-7-carboxamide] had a CC50 in series [1] above 50 µM. Further, the half-life at 1 μM in series [2] was determined as 2.12 h. The compound also returned an EC50 in the series on HBV of 0.055 µM.
The compound `CNC(=O)[C@@H]1CN(C(C)c2ccc(NCC(F)(F)F)nc2)C(=O)c2c3c(nn21)C[C@@H](C)N(C(=O)c1ccc(Cl)c(Cl)c1)C3` (single isomer, unassigned) [Compound 33A, (3R,7S)-2-(3,4-Dichlorobenzoyl)-N,3-dimethyl-10-oxo-9-((R*)-1-(6-((2,2,2-trifluoroethyl)amino)pyridin-3-yl)ethyl)-1,2,3,4,7,8,9,10-octahydropyrido[4′,3′:3,4]pyrazolo[1,5-a]pyrazine-7-carboxamide] returned a half-maximal cytotoxic concentration (CC50) in series [1] above 50 µM. Besides, the “HLM Metabolism t1/2” value in series [2] came to 0.798 h. The compound also gave an EC50 in the series on HBV (setting [3]) of 0.062 µM.
Turning to `CNC(=O)[C@@H]1CN(C(C)c2ccc(N3CCCC3=O)nc2)C(=O)c2c3c(nn21)C[C@@H](C)N(C(=O)c1ccc(Cl)c(Cl)c1)C3` (single isomer, unassigned) [Compound 34A, (3R,7S)-2-(3,4-Dichlorobenzoyl)-N,3-dimethyl-10-oxo-9-((R*)-1-(6-(2-oxopyrrolidin-1-yl)pyridin-3-yl)ethyl)-1,2,3,4,7,8,9,10-octahydropyrido[4′,3′:3,4]pyrazolo[1,5-a]pyrazine-7-carboxamide], the CC50 in series [1] is above 50 µM. Moreover, the half-life at 1 μM in series [2] stood at 1.83 h. A half-maximal effect in the series with HBV (setting [3]) (EC50) was put at 0.38 µM.
In the case of `CNC(=O)[C@@H]1CN(C(C)c2ccc(-c3c(C)noc3C)nc2)C(=O)c2c3c(nn21)C[C@@H](C)N(C(=O)c1ccc(Cl)c(Cl)c1)C3` (single isomer, unassigned) [Compound 35A, (3R,7S)-2-(3,4-Dichlorobenzoyl)-9-((R*)-1-(6-(3,5-dimethylisoxazol-4-yl)pyridin-3-yl)ethyl)-N,3-dimethyl-10-oxo-1,2,3,4,7,8,9,10-octahydropyrido[4′,3′:3,4]pyrazolo[1,5-a]pyrazine-7-carboxamide], in series [1], the CC50 was above 50 µM. Also, the half-life at 1 μM in series [2] was found to be 1.16 h. In addition, in the series with HBV, the midpoint of the response, the EC50, lay at 0.39 µM.
Take `CNC(=O)[C@@H]1CN(C(C)c2ccc(C(F)F)nc2)C(=O)c2c3c(nn21)C[C@@H](C)N(C(=O)c1ccc(Cl)c(Cl)c1)C3` (single isomer, unassigned) [Compound 36A, (3R,7S)-2-(3,4-Dichlorobenzoyl)-9-((R*)-1-(6-(difluoromethyl)pyridin-3-yl)ethyl)-N,3-dimethyl-10-oxo-1,2,3,4,7,8,9,10-octahydropyrido[4′,3′:3,4]pyrazolo[1,5-a]pyrazine-7-carboxamide]: in series [1], the CC50 was above 50 µM. In series [2], the half-life at 1 μM was above 3 h. This compound also displayed an EC50 with HBV (setting [3]) of 0.086 µM.
For `CNC(=O)[C@@H]1CN(C(C)c2ccccn2)C(=O)c2c3c(nn21)C[C@@H](C)N(C(=O)c1ccc(Cl)c(Cl)c1)C3` (single isomer, unassigned) [Compound 37A, (3R,7S)-2-(3,4-Dichlorobenzoyl)-N,3-dimethyl-10-oxo-9-((R*)-1-(pyridin-2-yl)ethyl)-1,2,3,4,7,8,9,10-octahydropyrido[4′,3′:3,4]pyrazolo[1,5-a]pyrazine-7-carboxamide] the same measures were above 50 µM, above 3 h and 0.089 µM.
The compound `CNC(=O)[C@@H]1CN(C(C)c2cccc(Cl)n2)C(=O)c2c3c(nn21)C[C@@H](C)N(C(=O)c1ccc(Cl)c(Cl)c1)C3` (single isomer, unassigned) [Compound 38A, (3R,7S)-9-((R*)-1-(6-Chloropyridin-2-yl)ethyl)-2-(3,4-dichlorobenzoyl)-N,3-dimethyl-10-oxo-1,2,3,4,7,8,9,10-octahydropyrido[4′,3′:3,4]pyrazolo[1,5-a]pyrazine-7-carboxamide] came in with a CC50 in series [1] above 50 µM. Moreover, in series [2], the half-life at 1 μM is above 3 h. In the series on HBV (setting [3]), this compound registered an EC50 of 0.068 µM.
With `CNC(=O)[C@@H]1CN(C(C)c2ccc(C(C)(C)O)cn2)C(=O)c2c3c(nn21)C[C@@H](C)N(C(=O)c1ccc(Cl)c(Cl)c1)C3` (single isomer, unassigned) [Compound 39A, (3R,7S)-2-(3,4-Dichlorobenzoyl)-9-((R*)-1-(5-(2-hydroxypropan-2-yl)pyridin-2-yl)ethyl)-N,3-dimethyl-10-oxo-1,2,3,4,7,8,9,10-octahydropyrido[4′,3′:3,4]pyrazolo[1,5-a]pyrazine-7-carboxamide], the CC50 in series [1] is above 50 µM. The half-life at 1 μM in series [2] was above 3 h. This compound also yielded an EC50 with HBV of 1.68 µM.
